US20100310471A1, “ANTIOXIDANT AND PARAMAGNETIC HEPARIN-NITROXIDE DERIVATIVES” (Johannes Gutenberg-Universität Mainz, priority 2007, published 2010)

Assays:
[1] = EPR spectra of H—NRs in aqueous solution (line width); type: physicochemical; details: 0.1 mM aqueous solutions, pH 7.4, room temperature, X-band
Description: FIG. 2. Spectra EPR of TEMPO and different H—NRs (0.1 mM aqueous solutions, pH 7.4). EPR spectra were recorded at room temperature using an X-band radiospectrometer MS200 (Magnettech GmbH, Berlin). Instrument parameters were 10 mW microwave power, 0.1 mT amplitude modulation, 100 kHz modulation frequency, sweep field 11 mT and 120 s sweep time.
The line widths of the EPR signals of all H—NRs were slightly broader in comparison to the EPR signal of TEMPOL, indicating slight decrease in the mobility of nitroxyl groups upon binding to heparin as well as spin-spin interactions between them. Thus, ΔH (in gauss) were 1.8, 2.1, 2.5, 2.0 and 2.5 for TEMPOL, H—NR-1, H—NR-2, H—NR-3 and H—NR-4, respectively. The line width the signal is critical for the in vivo EPR imaging. A narrower signal provides for better resolution, and is therefore preferred. As a result, the H—NR-3, in which nitroxide is bound to heparin via a linker, provides for a higher spectral mobility, and is thus preferred for EPR imaging.

[2] = test system: heparin-binding sites of the vascular wall (rat aorta); assay: Binding to rat aortic rings, detected by EPR (X-band) after wash with Krebs; details: for replacement of heparin-nitroxide from heparin-binding sites of rat aorta by dextran: 100 μM H—NR-2, 1 hr, 37° C., with 1 mM or 10 mM dextran (up to 100 molar excess)
Description: Therefore, the heparin-nitroxide derivative of the present invention is able to specifically bind with high affinity to specific sites in biological vessels.
FIG. 4. Spectra EPR, (A) 10 μM H—NR-1 solution; (B) rat aortic ring (3 mm long) pre-incubated with 10 μM H—NR-1 for 1 hour and then washed 3 times with Krebs buffer; (C) rat aortic ring (3 mm long) pre-incubated with 10 μM H—NR-1 in the presence of heparin (liquemin, 30 units/ml) for 1 hour and then washed 3 times with Krebs buffer; (D) 5 μM 4-hydroxy-TEMPO; (E) rat aortic ring (3 mm long) pre-incubated with 10 μM 4-hydroxy-TEMPO for 1 hour and then washed 3 times with Krebs buffer. EPR spectra were recorded at room temperature using an X-band radiospectrometer MS200 (Magnettech GmbH, Berlin). Instrument parameters were 10 mW microwave power, 0.1 mT amplitude modulation, 100 kHz modulation frequency, sweep field 5 mT and 60 s sweep time. Representative spectra of 3 experiments are shown.
FIG. 5. The binding of H—NR-1 to rat aorta as a function of time and concentration. Rat aortic rings (3 mm long) were incubated (37° C.) with 10 μM or 100 μM H—NR-1 either for 0.5 hr, 1 hr, 1.5 hr, 2 hr, 3 hr and then washed out with Krebs solution. To estimate the amount of H—NR-1 bound to tissue, aortic rings were placed in capillaries, and spectra EPR(X-band) were recorded.
FIG. 6. […] Rat aortic rings (3 mm long) with or without endothelium were incubated (37° C.) with 10 μM H—NR-1 for 1 hr and then washed out with Krebs solution. To estimate the amount of H—NR-1 bound to tissue, aortic rings were placed in capillaries and spectra EPR(X-band) were recorded at room temperature.
FIG. 12. […] Rat aortic rings (3 mm long) were incubated (37° C.) with 100 μM H—NR-2 for 1 hr and then washed out with Krebs solution. Rings were incubated with H—NR-2 along (A) or in the presence of 1 mM dextran (B), or in the presence of 10 mM dextran (C). To estimate the amount of H—NR-2 bound to tissue, aortic rings were placed in capillaries, and spectra EPR(X-band) were recorded.

[3] = known value; cited from earlier work

| Molecule | ΔH, line width of the EPR signal [1] [gauss] | binding to rat aorta (EPR signal in tissue after wash) ([2]; aortic ring pre-incubated with 10 μM for 1 hour, washed 3 times with Krebs buffer) | half-life in vivo [3] | replacement of heparin-nitroxide from heparin-binding sites of rat aorta by dextran [2] | replacement of heparin-nitroxide from heparin-binding sites of rat aorta by dextran ([2]; listed as Dextran) |
| --- | --- | --- | --- | --- | --- |
| CC1(C)CC(O)CC(C)(C)N1[O] [TEMPOL, 4-hydroxy-2,2,6,6-tetramethylpiperidine-N-oxyl] | 1.8 | did not result in the appearance of the EPR signal in tissue | only a few minutes |  |  |
| dextran |  |  |  | unable to replace heparin-nitroxide from the vascular tissue | unable to replace Heparin-nitroxide |
